Reference: patent publication US7858658B2, “Fluoro- and trifluoroalkyl-containing heterocyclic sulfonamide inhibitors of beta amyloid production and derivatives thereof” (Wyeth LLC, priority 2003, dated 2010)
pEC50: −log10 of the molar value. Values joined by “and” are separate entries in the source; they are usually repeats but may differ in a detail not shown here. Equal values may be shown once.

Assays:
beta amyloid 40 = test: Aβ40/42 ELISA Assay, Aβ40; format: cell-based; details: CHO cells carrying the APP-REP-NL plasmid, 22 hours
Method: (§1) Compounds are diluted from DMSO stocks to 2 μM and below in a cell culture medium. Compounds are then applied to CHO cells carrying the APP-REP-NL plasmid [Sudhir et. al, J. Biolog. Chem. 267:25602-25608 (1992)] for a period of 22 hours. After the conditioning period, medium is collected, diluted in assay buffer containing protein, and samples, controls, and synthetic peptide standards are incubated on a prepared ELISA plate. Using a sandwich ELISA with antibodies specifically directed against the carboxyl terminus of beta amyloid 40 or 42 [analogous to the method reported by Haugabook et al., J. Neurosci. Methods 108:171-179 (2001) but using goat anti-mouse IgG1 (source: Southern Biotech) as the anchor, 6E10 as the capture antibody (Source: SENETEK), rabbit antiAβ40 and antiAβ42 (source: QCB) and APL-donkey anti-rabbit IgG (H+L, source: Southern Biotech) as the detection antibody], the effect of the compound treatment on the cellular production of extracellular beta amyloid is quantified. Cells treated with compound are subsequently incubated in cell culture medium containing […]. After a short incubation period, MTS/medium containing plates are read in a spectrophotometer to determine the extent to which compound toxicity affected the cell's metabolism and ability to synthesize beta amyloid. […]

beta amyloid 42 = test: Aβ40/42 ELISA Assay, Aβ42; format: cell-based; details: CHO cells carrying the APP-REP-NL plasmid, 22 hours
Method: as §1

[1] = system: amyloid precursor protein (APP) proteolysis; test: Repressor Release Assay (RRA); format: cell-based; details: all compounds tested at 20 μg/mL; for fold induction at 20 µg/mL: read-out: RRA data: fold increase of APPI (luciferase activity over diluent control)
Method: The beta amyloid inhibitory activity of many of the compounds of the present invention has been determined using the Repressor Release Assay (RRA). See, Table 5 below. A compound is considered active in RRA if it leads to at least a 1.5 fold increase in luciferase activity at 20 μg/mL and is non-toxic.
The compounds generated as described in the Examples above are tested in the RRA in accordance with published techniques [Shuey, D. J., Sheiffele, P., Jones, D., Cockett, M. I., and Quinet, E. M. (1999), “Repressor release: a useful tool for monitoring amyloid precursor protein (APP) proteolysis in mammalian cells”, Society for Neuroscience Abstracts, Vol. 25, 29th Annual Meeting of Society for Neuroscience, Miami Beach, Fla., Oct. 23-28, 1999]. Briefly, this assay is performed as follows.
CHO-K1 cells are cultured in whole DMEM media (DMEM—High Glucose with 10% fetal bovine serum, 1% Non-essential Amino Acids, and 1% Penicillin-Streptomycin) at 37° C. with 5% CO2. Two million cells are plated into 10-cm dishes 24 hrs prior to transfection.
Transient transfections are completed as recommended by Gibco BRL using their Lipofectamine Plus® system. First, 6 μg of pRSVO-luc and 6 μg of APP-lacI construct DNA are added to 460 μL Opti-Mem transfection media and incubated with the 30 μL Plus® reagent for 15 minutes. Then, a lipid mixture of 40 μL Lipofectamine Plus® reagent and 460 μL Opti-Mem transfection media is incubated with the DNA-Plus reagent mixture for 15 minutes. During the DNA-lipid incubation, the CHO-K1 cells are washed once and covered in 5.0 mL DMEM media without Penicillin-Streptomycin. The DNA-lipid preparation is then layered onto these cells and incubated at 37° C. overnight.
One and one half million transfected cells per well (100 μL total volume) are plated into sterile, opaque Packard 96-well Cultur-Plates™ in clear DMEM whole media (DMEM—without phenol red) and incubated at 37° C. with 5% CO2 for 3-5 hours.
Compounds are diluted using two different protocols; one protocol is used for compounds supplied neat (weighed powder in vial) and the other protocol is used for compounds supplied in solution (20 mM in DMSO in 96-well plates). For both protocols, 25 mM Hepes and 25 mM Hepes/1% DMSO are prepared fresh to be used as diluent. The Hepes/DMSO is used as the diluent control on all experimental plates.
The following table depicts the steps for compound dilution (please note that the last step is the addition of compound to cells/media in tissue culture plate):
Because some compounds arrive in 96-well format at 20 mM, the following represents the protocol for their dilution (note that an average molecular weight of these compounds was used to calculate these dilutions and as above, the last step is the addition of compound to cells/media in tissue culture plate):
Once compounds are diluted, they are applied in duplicate on cells in tissue culture plates (prepared above). Cells are incubated with compound at 37° C. with 5% CO2 for an additional 36-48 hours.
Luciferase assays (the LucLite® reagent, Packard) are performed and are read on a Packard TopCount® instrument. Media is removed from each 96-well plate and replaced with 100 μL PBS per well (with Mg^2+ and Ca^2+). An equal volume (100 μL) of the LucLite® lysis/substrate buffer is added to each well and the plates are sealed and mixed in the dark on a rotary shaker for about 15 to about 30 minutes at room temperature. Luciferase readings are then taken on the TopCount® instrument. Measurements are expressed as relative light units (RLU) and are calculated and analyzed in the MS Excel® program as follows.
A compound is considered active in RRA if it leads to at least a 1.5 fold increase in luciferase activity at 20 μg/mL and is non-toxic, as determined by loss of signal (≦0.75 fold increase). Fold increase is the amount of luciferase activity (measured in relative light units) over diluent control. SEM represents the standard error of the mean for fold increase (not shown).

in vitro = details: rat, microsomes
[2] = Phase 1 and 2 rat liver microsome metabolism; format: in vitro ADME; details: liver microsomes, read-out: half-life (metabolic stability)
[3] = Phase 1 and 2 mouse liver microsome metabolism; format: in vitro ADME; details: liver microsomes, read-out: half-life (metabolic stability)
[4] = Phase 1 and 2 dog liver microsome metabolism; format: in vitro ADME; details: liver microsomes, read-out: half-life (metabolic stability)
[5] = Phase 1 and 2 human liver microsome metabolism; format: in vitro ADME; details: liver microsomes, read-out: half-life (metabolic stability)
[6] = mouse, microsomes

RRA data: fold increase of APPI (luciferase activity over diluent control) [1] | SMILES | fold induction at 20 µg/mL [1] | further results
18.5-28.1 fold increase | C[C@H](NC(=O)Cc1cc(F)cc(F)c1)C(=O)N[C@H](C(=O)OC(C)(C)C)c1ccccc1 [DAPT] |  | pEC50 (beta amyloid 40): 6.77; pEC50 (beta amyloid 42): 6.89
 | C[C@H](CC(F)(F)F)[C@@H](CO)NS(=O)(=O)c1ccc(Cl)s1 [Example 1, 5-Chloro-N-[(1S,2R)-4,4,4-trifluoro-1-(hydroxymethyl)-2-methylbutyl]thiophene-2-sulfonamide] | 3.2 | half-life (in vitro): ~193 min; melting point: 132 to 133 °C and 136 to 137 °C; half-life [2]: 14 min; half-life [3]: 10 min; half-life [4]: 31 min; half-life [5]: 22 min
 | CC[C@H](CC(F)(F)F)[C@@H](CO)NS(=O)(=O)c1ccc(Cl)s1 [Example 2, 5-Chloro-N-[(1S,2R)-2-ethyl-4,4,4-trifluoro-1-(hydroxymethyl)butyl]thiophene-2-sulfonamide] | 5.4 | melting point: 128 to 129 °C
4.3 fold increase | CC[C@H](CC(F)(F)F)[C@H](NS(=O)(=O)c1ccc(Cl)s1)C(C)O (stereo partly drawn) [Example 3, 5′-Chloro-N-[(1S,2R)-2-ethyl, 4,4,4-trifluoro-1-(1-hydroxyethyl)butyl]thiophene-2′-sulfonamide] |  | 
3.8 fold increase | O=S(=O)(N[C@H](CO)C(C(F)(F)F)C(F)(F)F)c1ccc(Cl)s1 [Example 5, 5′-Chloro-N-[3,3,3-trifluoro-2-(trifluoromethyl)-1-S-(hydroxymethyl)propyl]thiophene-2′-sulfonamide] |  | half-life (metabolic stability) [6]: 46 min
 | CC[C@@H](CC(F)(F)F)[C@H](CO)NS(=O)(=O)c1ccc(Cl)s1 [Example 6, 5-Chloro-N-[(1R,2S)-2-ethyl-4,4,4-trifluoro-1-(hydroxymethyl)butyl]thiophene-2-sulfonamide] | 4.2 | 
 | O=S(=O)(NC(CO)CCC(F)(F)F)c1ccc(Cl)s1 (stereo not shown) [Example 7, 5-Chloro-N-[4,4,4-trifluoro-1-(hydroxymethyl)butyl]thiophene-2-sulfonamide] | 3.9 | 
 | C[C@H](O)[C@@H](NS(=O)(=O)c1ccc(Cl)s1)[C@H](C)CC(F)(F)F [Example 8, 5-Chloro-N-{(1S,2R)-4,4,4-trifluoro-1-[(1S)-1-hydroxyethyl]-2-methylbutyl}thiophene-2-sulfonamide] | 2.8 | 
 | C[C@H](CC(F)(F)F)[C@H](NS(=O)(=O)c1ccc(Cl)s1)[C@@H](C)O [Example 9, 5-Chloro-N-{(1S,2R)-4,4,4-trifluoro-1-[(1R)-1-hydroxyethyl]-2-methylbutyl}thiophene-2-sulfonamide] | 2.8 | 
 | C[C@@H](CC(F)(F)F)[C@@H](CO)NS(=O)(=O)c1ccc(Cl)s1 [Example 10, 5-Chloro-N-[(1S,2S)-4,4,4-trifluoro-1-(hydroxymethyl)-2-methylbutyl]thiophene-2-sulfonamide] | 5.2 | melting point: 99 to 100 °C
4.2 fold increase | CC[C@@H](CC(F)(F)F)[C@@H](CO)NS(=O)(=O)c1sc2ccc(Cl)cc2c1C [Example 11, (2S,3S)-2-(5-Chloro-3-methylbenzo[b]thiophene-2-sulfonyl)-amido-5,5,5-trifluoro-3-ethyl-pentan-1-ol] |  | 
1.6 fold increase | Cc1nn(C)c(Cl)c1S(=O)(=O)N[C@H](CO)[C@H](CC(F)(F)F)c1ccccc1 [Example 12, (2S,3R)-2-(5-Chloro-1,3-dimethyl-1H-pyrazole-4-sulfonyl)-amido-5,5,5-trifluoro-3-phenyl-pentan-1-ol] |  | 
 | O=S(=O)(NC(CO)C1CCC(F)(F)CC1)c1ccc(Cl)s1 (stereo not shown) [Example 14, 5-Chloro-N-[1-(4,4-difluorocyclohexyl)-2-hydroxyethyl]thiophene-2-sulfonamide] | 6.2 | 
 | O=S(=O)(NC(CO)C1CC2C(C1)C2(F)F)c1ccc(Cl)s1 (stereo not shown) [Example 15, 5-Chloro-N-[1-(6,6-difluorobicyclo[3.1.0]hex-3-yl)-2-hydroxyethyl]thiophene-2-sulfonamide] | 4.7 | 
 | C[C@H](CC(F)(F)F)[C@@H](C=O)NS(=O)(=O)c1ccc(Cl)s1 [Example 16, 5-Chloro-N-[(1S,2R)-4,4,4-trifluoro-1-formyl-2-methylbutyl]thiophene-2-sulfonamide] | 3.9 | 
 | CC(=O)[C@@H](NS(=O)(=O)c1ccc(Cl)s1)[C@H](C)CC(F)(F)F [Example 17, N-[(1S,2R)-1-Acetyl-4,4,4-trifluoro-2-methylbutyl]-5-chlorothiophene-2-sulfonamide] | 3.6 | 
 | C[C@H](CC(F)(F)F)[C@H](NS(=O)(=O)c1ccc(Cl)s1)C(C)(C)O [Example 18, 5-Chloro-N-[(1S,2R)-4,4,4-trifluoro-1-(1-hydroxy-1-methylethyl)-2-methylbutyl]thiophene-2-sulfonamide] | 2.9 | 
 | O=S(=O)(NC(CO)CC(F)(F)F)c1ccc(Cl)s1 (stereo not shown) [Example 40, 5-chloro-(3,3,3-trifluoro-1-hydroxymethyl-propyl)-thiophene-2-sulfonamide] | 3.8 | 
 | C[C@@H](O)[C@@H](NS(=O)(=O)c1ccc(Cl)s1)C(C(F)(F)F)C(F)(F)F [Example 41, 5-Chloro-N-[(1S)-3,3,3-trifluoro-1-[(1R)-1-hydroxyethyl]-2-(trifluoromethyl)propyl]thiophene-2-sulfonamide] | 6.2 | 

SMILES | RRA data: fold increase of APPI (luciferase activity over diluent control) [1] | fold induction at 20 µg/mL [1] | further results
O=S(=O)(NC(CO)C(C(F)(F)F)C(F)(F)F)c1ccc(Cl)s1 (stereo not shown) [Example 4, 5′-Chloro-N-[3,3,3-trifluoro-2-(trifluoromethyl)-1-(hydroxymethyl)propyl]thiophene-2′-sulfonamide] | 3.7 fold increase |  | 
